Biological target: Thymidylate synthase (Homo sapiens, UniProt P04818)
Experiment: Tritium Release Assay
Conditions: pH 7.5; 4 °C

Sequence of Thymidylate synthase (P04818 whole entry): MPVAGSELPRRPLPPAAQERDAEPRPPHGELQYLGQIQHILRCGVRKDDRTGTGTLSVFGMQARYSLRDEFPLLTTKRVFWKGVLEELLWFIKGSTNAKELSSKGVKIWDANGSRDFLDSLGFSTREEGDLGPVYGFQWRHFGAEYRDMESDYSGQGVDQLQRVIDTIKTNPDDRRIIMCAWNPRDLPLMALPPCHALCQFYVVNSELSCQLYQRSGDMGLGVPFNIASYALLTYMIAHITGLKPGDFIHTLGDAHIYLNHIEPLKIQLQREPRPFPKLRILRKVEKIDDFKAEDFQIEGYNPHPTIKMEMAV

Row | SMILES | IC50 | Kd
1 | CC(OC(=O)c1cc2occc2n1C)C(=O)NCc1cccs1 (stereo not given) [MV1574] | > 500 µM | –
2 | O=C(O)c1ccc(/N=C/c2ccc(-c3cccs3)s2)cc1 [MV1556] | 240 µM | –
3 | Cc1onc(-c2ccccc2)c1C(=O)NCc1cccs1 [MV1581] | > 500 µM | –
4 | CC(=NNC(=O)Cc1c(C)[nH]c2ccc(C)cc12)c1cccs1 [MV1561] | 160 µM | –
5 | CCOC(=O)c1cc2oc(C)cc2n1CC#N [MV1578] | > 500 µM | –

More lines, now with the values ahead:

Row | IC50 | Kd | SMILES
6 | 30 µM | 5 µM | Cc1c(C(=O)NCCc2cccs2)nnn1-c1ccccc1 [MV1555]
7 | 160 µM | – | CCN1C(=O)c2cccc3c(NC(=O)c4cccs4)ccc1c23 [MV1554]
8 | 140 µM | – | CCOC(=O)c1cc2occc2n1CC(=O)N1CCc2ccccc21 [MV1576]
9 | 70 µM | 2 µM | O=C(NCCc1c[nH]c2ccccc12)/C(=C\c1cccs1)NC(=O)c1cccs1 [MV1570]
10 | 70 µM | 1 µM | CCc1ccc(/C=N/NC(=O)c2c[nH]c3ccccc23)s1 [MV1565]
11 | 115 µM | – | O=C(NCc1cccs1)c1nc(-c2ccccc2)no1 [MV1586]
12 | 115 µM | – | Cc1cc(C(=O)CSc2nnc(N)s2)c(C)n1Cc1ccco1 [MV1588]

From BindingDB's records for doi:10.1111/j.1747-0285.2010.01010.x (University of Washington, 2010)
